Values of other authors in patent US20080213433A1, “Fluid compositions comprising polyphenols and methods for making and packaging the same” (priority 2006, published 2008).

Columns and labels:
[1] = molecular target: T1, SIRT1 (Homo sapiens, UniProt Q96EB6); details: sirtuin enzyme; cis-isomer compared to trans-resveratrol
T1 sequence (Q96EB6 1-747): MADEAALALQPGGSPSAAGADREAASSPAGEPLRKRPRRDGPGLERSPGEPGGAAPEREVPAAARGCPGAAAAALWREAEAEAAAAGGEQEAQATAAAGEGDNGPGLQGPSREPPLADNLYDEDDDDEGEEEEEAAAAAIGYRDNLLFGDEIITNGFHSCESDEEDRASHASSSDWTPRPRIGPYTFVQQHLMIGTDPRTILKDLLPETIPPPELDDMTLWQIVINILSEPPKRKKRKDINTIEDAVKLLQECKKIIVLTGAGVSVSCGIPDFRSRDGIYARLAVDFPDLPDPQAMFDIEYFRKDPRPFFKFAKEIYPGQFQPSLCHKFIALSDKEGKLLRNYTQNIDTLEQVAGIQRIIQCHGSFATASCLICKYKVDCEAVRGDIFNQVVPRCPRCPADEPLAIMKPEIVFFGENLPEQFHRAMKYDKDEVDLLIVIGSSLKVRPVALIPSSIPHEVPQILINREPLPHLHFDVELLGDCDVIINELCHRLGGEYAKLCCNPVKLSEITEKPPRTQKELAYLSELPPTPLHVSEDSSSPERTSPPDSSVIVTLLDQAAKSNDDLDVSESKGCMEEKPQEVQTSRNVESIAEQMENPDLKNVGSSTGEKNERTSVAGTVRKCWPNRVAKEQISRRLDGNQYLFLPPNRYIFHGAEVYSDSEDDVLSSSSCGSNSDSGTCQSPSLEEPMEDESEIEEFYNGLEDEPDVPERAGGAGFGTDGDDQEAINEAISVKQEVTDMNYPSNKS

[2] = β-glucosidases in the human intestines hydrolyze piceid and release free trans-resveratrol

stimulation / activation of SIRT1 [1]	bioavailability of trans-resveratrol derived from the β-glucosidic form vs the free form in solution [2]	Structure (SMILES)
considerably less efficacy		Oc1ccc(/C=C\c2cc(O)cc(O)c2)cc1 [Cis-resveratrol]
	equivalent	OCC1OC(Oc2cc(O)cc(/C=C/c3ccc(O)cc3)c2)C(O)C(O)C1O (stereo not drawn) [piceid, 2-[3-hydroxy-5-[(E)-2-(4-hydroxyphenyl)ethenyl]phenoxy]-6-(hydroxymethyl)oxane-3,4,5-triol]
stimulate		Oc1ccc(/C=C/c2cc(O)cc(O)c2)cc1 [Trans-resveratrol]
